From ChEMBL document CHEMBL5634156, “A potent and selective cis-amide inhibitor of ryanodine receptor 2 as a candidate for cardiac arrhythmia treatment” (Eur J Med Chem, 2023)
Active and inactive are the calls of the source. No cut-off for these calls is given here.

Columns and labels:
Assay type in all cases: cell-based
Ryanodine receptor 2 = Ryanodine receptor 2 (Mus musculus, UniProt E9Q401); assay: Inhibition of Full length wild type mouse RyR2 expressed in Flp-In-T-REx-293 cells assessed as increase in Ca2+ release endoplasmic reticulum by flex-station 3 fluorometer analysis
Ryanodine receptor 2, sequence (E9Q401 whole entry): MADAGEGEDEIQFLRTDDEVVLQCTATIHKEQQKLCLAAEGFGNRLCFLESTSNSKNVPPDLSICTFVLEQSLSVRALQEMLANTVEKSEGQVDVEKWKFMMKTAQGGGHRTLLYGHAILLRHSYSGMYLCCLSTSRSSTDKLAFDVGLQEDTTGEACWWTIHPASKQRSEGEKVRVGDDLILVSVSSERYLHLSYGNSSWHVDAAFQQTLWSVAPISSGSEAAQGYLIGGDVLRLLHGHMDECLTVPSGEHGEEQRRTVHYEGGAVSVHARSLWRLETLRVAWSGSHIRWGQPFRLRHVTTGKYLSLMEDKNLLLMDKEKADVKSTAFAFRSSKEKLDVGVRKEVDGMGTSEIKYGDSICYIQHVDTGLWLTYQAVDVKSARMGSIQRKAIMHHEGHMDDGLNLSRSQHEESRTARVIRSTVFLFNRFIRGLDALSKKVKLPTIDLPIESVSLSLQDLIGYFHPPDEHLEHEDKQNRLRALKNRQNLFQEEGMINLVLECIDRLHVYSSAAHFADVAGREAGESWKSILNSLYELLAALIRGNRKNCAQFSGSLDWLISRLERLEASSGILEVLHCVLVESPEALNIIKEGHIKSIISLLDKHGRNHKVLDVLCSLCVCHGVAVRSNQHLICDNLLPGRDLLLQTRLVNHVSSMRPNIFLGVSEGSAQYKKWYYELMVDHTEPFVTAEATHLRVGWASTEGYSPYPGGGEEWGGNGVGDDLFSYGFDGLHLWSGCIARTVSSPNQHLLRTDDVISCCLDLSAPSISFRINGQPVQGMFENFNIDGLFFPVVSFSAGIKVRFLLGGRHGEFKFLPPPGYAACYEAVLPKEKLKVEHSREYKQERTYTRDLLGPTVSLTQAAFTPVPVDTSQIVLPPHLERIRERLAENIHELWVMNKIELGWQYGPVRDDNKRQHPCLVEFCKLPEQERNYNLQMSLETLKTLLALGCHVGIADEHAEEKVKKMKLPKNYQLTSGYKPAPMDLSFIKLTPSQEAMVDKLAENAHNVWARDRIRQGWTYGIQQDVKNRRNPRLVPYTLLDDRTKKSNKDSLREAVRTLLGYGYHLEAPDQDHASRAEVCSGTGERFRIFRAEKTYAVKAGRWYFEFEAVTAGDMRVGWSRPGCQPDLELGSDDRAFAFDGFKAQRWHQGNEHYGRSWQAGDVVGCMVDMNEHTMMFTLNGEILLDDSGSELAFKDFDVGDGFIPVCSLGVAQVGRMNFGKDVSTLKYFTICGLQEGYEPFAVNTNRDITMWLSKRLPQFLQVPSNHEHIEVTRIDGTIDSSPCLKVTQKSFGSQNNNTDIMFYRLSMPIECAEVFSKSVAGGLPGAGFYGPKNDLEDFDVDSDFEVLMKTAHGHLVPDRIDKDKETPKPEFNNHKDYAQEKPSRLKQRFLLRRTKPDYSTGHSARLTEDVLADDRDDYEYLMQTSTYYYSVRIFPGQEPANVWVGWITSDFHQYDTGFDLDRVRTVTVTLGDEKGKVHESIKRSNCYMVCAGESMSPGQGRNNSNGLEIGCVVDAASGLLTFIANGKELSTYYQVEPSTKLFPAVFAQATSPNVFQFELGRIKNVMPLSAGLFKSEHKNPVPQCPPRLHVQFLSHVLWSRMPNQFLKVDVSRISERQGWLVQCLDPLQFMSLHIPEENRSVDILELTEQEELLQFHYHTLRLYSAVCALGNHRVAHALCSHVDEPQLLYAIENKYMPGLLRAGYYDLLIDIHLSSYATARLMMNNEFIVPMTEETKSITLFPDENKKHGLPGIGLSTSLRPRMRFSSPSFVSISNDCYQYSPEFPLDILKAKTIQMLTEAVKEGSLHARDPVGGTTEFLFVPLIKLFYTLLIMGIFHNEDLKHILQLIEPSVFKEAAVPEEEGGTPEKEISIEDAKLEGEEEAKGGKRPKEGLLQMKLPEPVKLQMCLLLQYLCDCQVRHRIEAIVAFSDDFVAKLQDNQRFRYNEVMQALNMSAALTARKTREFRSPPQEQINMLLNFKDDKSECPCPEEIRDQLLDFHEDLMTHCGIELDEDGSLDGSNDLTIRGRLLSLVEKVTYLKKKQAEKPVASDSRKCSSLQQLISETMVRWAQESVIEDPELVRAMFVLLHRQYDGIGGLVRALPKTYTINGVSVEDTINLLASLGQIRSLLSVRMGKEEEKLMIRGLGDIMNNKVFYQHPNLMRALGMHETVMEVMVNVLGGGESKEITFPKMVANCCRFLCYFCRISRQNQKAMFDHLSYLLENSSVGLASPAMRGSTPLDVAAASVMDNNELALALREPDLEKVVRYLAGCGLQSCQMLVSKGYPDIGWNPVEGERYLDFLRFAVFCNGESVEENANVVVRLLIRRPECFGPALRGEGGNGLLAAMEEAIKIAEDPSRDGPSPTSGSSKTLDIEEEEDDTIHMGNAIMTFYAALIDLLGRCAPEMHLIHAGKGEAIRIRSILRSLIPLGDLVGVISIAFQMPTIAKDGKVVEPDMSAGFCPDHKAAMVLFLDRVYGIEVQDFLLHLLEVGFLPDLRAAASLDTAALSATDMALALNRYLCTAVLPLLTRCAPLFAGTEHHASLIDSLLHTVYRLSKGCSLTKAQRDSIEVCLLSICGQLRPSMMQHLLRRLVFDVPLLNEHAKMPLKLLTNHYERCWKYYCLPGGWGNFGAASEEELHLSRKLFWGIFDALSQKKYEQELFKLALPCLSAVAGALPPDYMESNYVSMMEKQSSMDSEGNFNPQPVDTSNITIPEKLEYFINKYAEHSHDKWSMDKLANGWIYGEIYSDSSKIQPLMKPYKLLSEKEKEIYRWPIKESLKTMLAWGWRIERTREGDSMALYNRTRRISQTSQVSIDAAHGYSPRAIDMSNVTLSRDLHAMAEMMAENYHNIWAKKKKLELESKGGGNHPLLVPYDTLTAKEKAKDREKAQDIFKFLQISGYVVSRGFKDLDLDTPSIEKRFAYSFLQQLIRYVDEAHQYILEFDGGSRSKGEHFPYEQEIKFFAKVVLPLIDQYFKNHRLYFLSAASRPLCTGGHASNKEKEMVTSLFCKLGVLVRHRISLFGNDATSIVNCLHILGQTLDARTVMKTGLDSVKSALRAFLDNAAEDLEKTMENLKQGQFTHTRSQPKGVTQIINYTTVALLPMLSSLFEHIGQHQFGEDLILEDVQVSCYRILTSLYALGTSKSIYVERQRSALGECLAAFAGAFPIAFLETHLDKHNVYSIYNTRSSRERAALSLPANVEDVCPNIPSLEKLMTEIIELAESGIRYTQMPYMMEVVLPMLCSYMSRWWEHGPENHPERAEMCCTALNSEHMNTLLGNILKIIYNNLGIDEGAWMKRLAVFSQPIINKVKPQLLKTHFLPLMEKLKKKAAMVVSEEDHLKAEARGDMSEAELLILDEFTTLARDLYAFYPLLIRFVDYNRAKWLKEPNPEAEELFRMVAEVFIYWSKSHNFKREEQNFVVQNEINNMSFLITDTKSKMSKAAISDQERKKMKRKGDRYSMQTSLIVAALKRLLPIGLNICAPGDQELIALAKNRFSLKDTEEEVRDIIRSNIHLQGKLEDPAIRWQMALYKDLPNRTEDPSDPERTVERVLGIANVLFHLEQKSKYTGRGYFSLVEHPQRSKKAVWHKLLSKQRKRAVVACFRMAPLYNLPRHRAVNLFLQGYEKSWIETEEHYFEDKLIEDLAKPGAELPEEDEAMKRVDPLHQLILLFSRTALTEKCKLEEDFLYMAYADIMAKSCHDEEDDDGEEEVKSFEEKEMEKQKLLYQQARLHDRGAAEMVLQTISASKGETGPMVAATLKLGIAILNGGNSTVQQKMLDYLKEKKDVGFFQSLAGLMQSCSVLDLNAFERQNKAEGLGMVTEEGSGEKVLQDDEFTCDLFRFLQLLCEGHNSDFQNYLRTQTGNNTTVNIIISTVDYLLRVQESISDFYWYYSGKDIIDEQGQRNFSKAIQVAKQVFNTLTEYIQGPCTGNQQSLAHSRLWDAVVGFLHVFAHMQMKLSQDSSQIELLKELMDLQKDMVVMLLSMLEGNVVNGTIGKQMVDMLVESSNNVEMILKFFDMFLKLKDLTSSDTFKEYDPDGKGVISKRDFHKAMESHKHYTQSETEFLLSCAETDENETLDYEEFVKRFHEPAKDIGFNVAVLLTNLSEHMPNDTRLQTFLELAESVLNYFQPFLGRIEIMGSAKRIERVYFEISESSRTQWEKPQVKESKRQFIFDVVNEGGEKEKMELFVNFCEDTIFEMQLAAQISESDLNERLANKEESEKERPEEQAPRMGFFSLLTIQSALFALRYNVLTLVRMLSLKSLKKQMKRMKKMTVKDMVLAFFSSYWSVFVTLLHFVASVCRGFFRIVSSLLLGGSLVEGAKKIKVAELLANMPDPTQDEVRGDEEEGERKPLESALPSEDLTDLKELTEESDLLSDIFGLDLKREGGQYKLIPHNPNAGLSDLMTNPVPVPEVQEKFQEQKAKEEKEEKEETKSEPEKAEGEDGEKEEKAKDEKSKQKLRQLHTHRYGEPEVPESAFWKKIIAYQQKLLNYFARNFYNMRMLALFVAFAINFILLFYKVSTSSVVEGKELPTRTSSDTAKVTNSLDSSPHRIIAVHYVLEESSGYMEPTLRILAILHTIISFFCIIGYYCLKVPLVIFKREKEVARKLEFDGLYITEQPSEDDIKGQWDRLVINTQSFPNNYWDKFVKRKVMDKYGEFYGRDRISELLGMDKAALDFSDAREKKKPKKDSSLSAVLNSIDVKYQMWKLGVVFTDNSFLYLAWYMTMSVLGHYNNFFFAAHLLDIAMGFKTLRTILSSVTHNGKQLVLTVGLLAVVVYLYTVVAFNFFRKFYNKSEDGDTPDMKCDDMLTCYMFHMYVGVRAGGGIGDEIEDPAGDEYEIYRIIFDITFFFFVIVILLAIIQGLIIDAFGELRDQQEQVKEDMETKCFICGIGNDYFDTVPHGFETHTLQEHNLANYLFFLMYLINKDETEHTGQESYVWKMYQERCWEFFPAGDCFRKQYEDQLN

Cardiomyocyte [1] = assay: Inhibition of RyR2 R420W mutant in mouse Cardiomyocyte assessed as 0.5 Hz field-pulse stimulated suppression of abnormal Ca2+ waves incubated for 3 mins by ROI analysis
Cardiomyocyte [2] = assay: Inhibition of RyR2 R420W mutant in mouse Cardiomyocyte assessed as 0.5 Hz field-pulse stimulated suppression of abnormal Ca2+ waves at 30 to 100 nM incubated for 15 seconds by ROI analysis; details: dose 30-100 nM, time 15.0 sec
HEK293 [3] = assay: Inhibition of RyR3 R2163C mutant (unknown origin) expressed in HEK293 cells assessed as caffeine-induced increase in Ca2+ release at 100 uM; details: Homo sapiens
[4] = molecular target: Ryanodine receptor 1 (Homo sapiens) (UniProt P21817); assay: Inhibition of RyR1 (unknown origin) expressed in HEK293 cells assessed as caffeine-induced increase in Ca2+ release at 100 uM by flex-station 3 fluorometer analysis
[5] = molecular target: Ryanodine receptor 2 (Mus musculus) (UniProt E9Q401); assay: Inhibition of Full length wild type mouse RyR2 expressed in Flp-In-T-REx-293 cells assessed as increase in Ca2+ release in endoplasmic reticulum at 30 uM by flex-station 3 fluorometer analysis
Ryanodine receptor 2 (Mus musculus), sequence (E9Q401 whole entry): as above

[6] = molecular target: Ryanodine receptor 2 (Mus musculus) (UniProt E9Q401); assay: Inhibition of Full length wild type mouse RyR2 expressed in Flp-In-T-REx-293 cells assessed as caffeine-induced increase in Ca2+ release in endoplasmic reticulum at 0.0001 to 100 uM by flex-station 3 fluorometer analysis; details: dose 0.0001-100 µM
HEK293 [7] = assay: Inhibition of RyR1 R2163C mutant (unknown origin) expressed in HEK293 cells; details: Homo sapiens
[8] = molecular target: Ryanodine receptor 2 (Mus musculus) (UniProt E9Q401); assay: Inhibition of Full length mouse RyR2 expressed in human Flp-In-T-REx-293 cells

Row | Compound | EC50 (Ryanodine receptor 2) [nM] | further results
1 | COc1cccc(-c2nnn(CC(=O)N(C)c3ccc(OC)c(F)c3)n2)c1 | 48 | 
2 | O=C(Cn1nnc(-c2cccc(F)c2)n1)N1CCc2ccccc21 | > 30000 | 
3 | CC(C)NCC(O)c1ccc(O)c(O)c1 (stereo not drawn) |  | inhibition (Cardiomyocyte [1]): inactive; inhibition (Cardiomyocyte [2]): inactive
4 | CN(C(=O)Cn1nnc(-c2ccccc2)n1)c1cccc(F)c1 | 234 | 
5 | COc1cccc(-c2nnn(CC(=O)Nc3ccc(F)cc3)n2)c1 | > 30000 | 
6 | COc1ccccc1N(C)C(=O)Cn1nnc(-c2ccccc2)n1 | > 30000 | 
7 | CN(C(=O)Cn1nnc(-c2cccc(F)c2)n1)c1ccc(F)cc1 | 34 | 
8 | Nc1nc2ccc(OC(F)(F)F)cc2s1 [RILUZOLE] | 9900 | 
9 | COc1cccc(-c2nnn(CC(=O)N3CCc4ccccc43)n2)c1 | > 30000 | 
10 | CN(C(=O)Cn1nnc(-c2ccccc2)n1)c1ccccc1 | 696 | 
11 | COc1cccc(-c2nnn(CC(=O)N(C)c3ccc(F)cc3)n2)c1 | 23 | 
12 | CN(C(=O)Cn1nnc(-c2ccccc2)n1)c1ccc(F)cc1 | 50 | 
13 | CN(C(=O)Cn1nnc(-c2ccc(F)cc2)n1)c1ccccc1 | 220 | 
14 | O=C(Cn1nnc(-c2ccccc2)n1)Nc1ccccc1 | > 30000 | 
15 | CN(C(=O)Cn1nnc(-c2ccccc2F)n1)c1ccccc1 | 460 | 
16 | CN(C(=O)Cn1nnc(-c2cc(F)cc(F)c2)n1)c1ccc(F)cc1 | 13 | inhibition (Cardiomyocyte [1]): Active; inhibition (HEK293 [3]): inactive; inhibition [4]: inactive; inhibition [5]: inactive; inhibition [6]: Active; inhibition (Cardiomyocyte [2]): Active
17 | COc1ccc(-c2nnn(CC(=O)Nc3ccccc3)n2)cc1 | > 30000 | 
18 | COc1cccc(N(C)C(=O)Cn2nnc(-c3ccccc3)n2)c1 | 25000 | 
19 | COc1cccc(-c2nnn(CC(=O)N(C)c3ccccc3)n2)c1 | 180 | 
20 | COc1ccc(-c2nnn(CC(=O)N(C)c3ccc(F)cc3)n2)cc1OC | 1140 | 

Row | Compound | EC50 (Ryanodine receptor 2) [nM] | further results
21 | COc1cccc(-c2nnn(CC(=O)Nc3ccccc3)n2)c1 | > 30000 | 
22 | COc1ccc(N(C)C(=O)Cn2nnc(-c3cccc(F)c3)n2)cc1 | 28 | 
23 | O=C(Cn1nnc(-c2cccc(F)c2)n1)Nc1ccccc1 | > 30000 | 
24 | CCN(C(=O)Cn1nnc(-c2ccccc2)n1)c1ccccc1 | 4080 | inhibition (HEK293 [7]): inactive; inhibition [8]: Active
25 | COc1ccc(N(C)C(=O)Cn2nnc(-c3cccc(OC)c3)n2)cc1 | 26 | 
26 | O=C(Cn1nnc(-c2cccc(F)c2)n1)Nc1ccc(F)cc1 | > 30000 | 
27 | COc1ccccc1-c1nnn(CC(=O)N(C)c2ccccc2)n1 | 2920 | 
28 | CN(C(=O)Cn1nnc(-c2cc(F)cc(F)c2)n1)c1ccccc1 | 22 | 
29 | O=C(Cn1nnc(-c2cc(F)cc(F)c2)n1)Nc1ccc(F)cc1 | > 30000 | 
30 | CN(C(=O)Cn1nnc(-c2ccccc2)n1)c1ccccc1F | 859 | 
31 | COc1ccccc1-c1nnn(CC(=O)Nc2ccccc2)n1 | > 30000 | 
32 | COc1ccc(-c2nnn(CC(=O)N(C)c3ccccc3)n2)cc1 | 1230 | 
33 | COc1ccc(NC(=O)Cn2nnc(-c3ccccc3)n2)cc1 | > 30000 | 
34 | COc1cc(-c2nnn(CC(=O)N(C)c3ccc(F)cc3)n2)ccc1F | 59 | 
35 | COC(=O)c1c(C)cc(O)cc1O [METHYL ORSELLINATE] | 1100 | 
36 | CCCN(C(=O)Cn1nnc(-c2ccccc2)n1)c1ccccc1 | 29400 | 
37 | CN(C(=O)Cn1nnc(-c2cccc(F)c2)n1)c1ccccc1 | 96 | 
38 | COc1cccc(-c2nnn(CC(=O)N(C)c3ccc(OC)c(OC)c3)n2)c1 | > 30000 | 
39 | COc1ccc(N(C)C(=O)Cn2nnc(-c3ccccc3)n2)cc1 | 136 | 
